Molecular target: T1, human recombinant ROCK1 kinase domain (amino acid 2-543) (Homo sapiens, UniProt Q13464)
T1 construct: human recombinant ROCK1 kinase domain (amino acid 2-543); His-tag; made in house; host or cells: Sf9 insect cells
Experiment: ROCK Kinase Assay (SPA, P33 incorporation into peptide substrate)
Type: biochemical
Conditions: 1 nM hROCK1, 1 uM ATP; eleven point dilution range, 50 uM to 0.8 nM or 10 uM to 0.8 nM (Example 98: 10 uM to 0.8 nM)
Description: ROCK inhibitor activity was determined using human recombinant ROCK1 kinase domain (amino acid 2-543) expressed in Sf9 cells (see WO9967283). The enzyme was purified using His-tag NTA column and Source15 HPLC chromatography. The assay of Rock-1 activity involved incubation with peptide substrate and ATP^33, the subsequent incorporation of P^33 into the peptide was quantified by Scintillation Proximity Assay (SPA—Amersham Pharmacia).
For IC50 determination, test compounds were typically dissolved at 10 mM in 100% DMSO, with subsequent serial dilution in 100% DMSO. Compounds were typically assayed over an eleven point dilution range with a concentration in the assay of 50 uM to 0.8 nM, in 3-fold dilutions. IC50 values were calculated by bespoke curve fitting software and then converted to pIC50. In some cases, compounds were assayed over an eleven point dilution range with a concentration in the assay of 10 uM to 0.8 nM, in 3-fold dilutions. […]
Assays were performed in opaque, white walled, 384 well plates, in a total assay volume of 20 ul. […] P^33 incorporation was quantified by scintillation counting in a Packard TopCount. When the reaction was terminated by addition of a 10 ul solution, P33 incorporation was quantified by luminescence detection using a Perkin-Elmer Viewlux ultraHTS microplate imager.

T1 sequence (Q13464 2-543): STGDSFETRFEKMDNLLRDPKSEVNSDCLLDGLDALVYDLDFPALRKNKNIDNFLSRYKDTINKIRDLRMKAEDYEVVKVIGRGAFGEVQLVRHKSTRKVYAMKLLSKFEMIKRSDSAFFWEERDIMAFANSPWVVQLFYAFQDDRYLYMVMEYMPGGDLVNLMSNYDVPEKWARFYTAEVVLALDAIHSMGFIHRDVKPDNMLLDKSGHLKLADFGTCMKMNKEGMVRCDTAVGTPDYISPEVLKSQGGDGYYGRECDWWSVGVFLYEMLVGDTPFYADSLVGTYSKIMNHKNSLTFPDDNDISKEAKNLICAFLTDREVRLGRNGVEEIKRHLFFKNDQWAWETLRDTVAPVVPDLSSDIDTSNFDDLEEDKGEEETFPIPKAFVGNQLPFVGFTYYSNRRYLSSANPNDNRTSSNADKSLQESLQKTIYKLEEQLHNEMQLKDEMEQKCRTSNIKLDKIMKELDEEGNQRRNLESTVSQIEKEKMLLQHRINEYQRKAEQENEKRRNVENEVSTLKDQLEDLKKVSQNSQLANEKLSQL

SMILES: CC1=C(C(=O)Nc2cc3cn[nH]c3cc2F)C(c2ccc(Cl)cc2F)N=C(c2ccnc(Cl)c2)N1C (stereo not shown) [Example 98, 4-(4-chloro-2-fluorophenyl)-2-(2-chloro-4-pyridinyl)-N-(6-fluoro-1H-indazol-5-yl)-1,6-dimethyl-1,4-dihydro-5-pyrimidinecarboxamide]
- activity in the ROCK kinase assay: not active
